Patent US20100179093A1, “Neoropeptide-2-Receptor (Y-2R) Agonists” (priority 2008, published 2010)
Read-outs that look alike come from different tables or passages of the source.

Key:
Format in all cases: cell-based
hNPY2R [1] = target: T1, hNPY2R (Homo sapiens, UniProt P49146); assay: cAMP Agonist Assay, HEK293/hNPY2R cells; set-up: expressed in transfected cells; host or cells: HEK293/hNPY2R (G418 selection)
T1 sequence (P49146 1-381): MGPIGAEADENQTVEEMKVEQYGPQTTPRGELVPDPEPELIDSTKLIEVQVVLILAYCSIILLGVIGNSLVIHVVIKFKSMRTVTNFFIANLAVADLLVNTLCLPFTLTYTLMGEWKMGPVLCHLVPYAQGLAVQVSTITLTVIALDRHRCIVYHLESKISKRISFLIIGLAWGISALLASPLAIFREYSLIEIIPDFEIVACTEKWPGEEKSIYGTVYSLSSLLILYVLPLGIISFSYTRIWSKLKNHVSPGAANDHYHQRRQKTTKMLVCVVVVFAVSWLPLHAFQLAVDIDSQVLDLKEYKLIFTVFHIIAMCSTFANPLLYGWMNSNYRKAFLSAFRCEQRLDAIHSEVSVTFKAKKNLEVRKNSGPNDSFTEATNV
Procedure: On the first day, medium was discarded, and the monolayer cells were washed with 10 mL PBS per flask (T225). […] The flask was gently tapped and the cell suspension was pooled. Each flask was rinsed with 10 mL plating medium and centrifuged at 1000 rpm for 5 min. The suspension was pooled and counted. The suspension was resuspended in plating medium at a density of 2.0×10^5 cells/mL for HEK293/hNPY2R. 50 microliters of cells (HEK293/hNPY2R-10,000 cells/well) were transferred into the 384-well plate using Multi-drop dispenser. The plates were incubated at 37° C. overnight. […] The media and reagents were allowed to come to room temperature. Before the dilutions were prepared, the stock solution of stimulating compound in dimethyl sulphoxide (DMSO, Sigma, cat #D2650) was allowed to warm up to 32 C for 5-10 min. […] The cell medium was tapped off with a gentle inversion of the cell plate on a paper towel. 50 μL of stimulation medium was placed per well (each concentration done in four replicates). The plates were incubated at room temperature for 30 min, and the cells were checked under a microscope for toxicity. After 30 minutes of treatment, the stimulation media was discarded and 50 mL/well of Assay Lysis Buffer (provided in the Tropix kit) was added. The plates were incubated for 45 min@37° C. 20 μL of the lysate was transferred from stimulation plates into the pre-coated antibody plates (384-well) from the Tropix kit. 10 μL of AP conjugate and 20 μL of anti-cAMP antibody was added. The plates were incubated at room temperature while shaking for 1 hour. The plates were then washed 5 times with Wash Buffer, 70 μL per well for each wash. The plates were tapped to dry. 30 μL/well of CSPD/Saphire-II RTU substrate/enhancer solution was added and incubated for 45 min @ RT (shake). Signal for 1 sec/well in a Luminometer.

Y1R = target: T2, Y1R (Homo sapiens, UniProt P25929); assay: CaFlux Assay (FLIPR), Y1R
T2 sequence (P25929 1-384): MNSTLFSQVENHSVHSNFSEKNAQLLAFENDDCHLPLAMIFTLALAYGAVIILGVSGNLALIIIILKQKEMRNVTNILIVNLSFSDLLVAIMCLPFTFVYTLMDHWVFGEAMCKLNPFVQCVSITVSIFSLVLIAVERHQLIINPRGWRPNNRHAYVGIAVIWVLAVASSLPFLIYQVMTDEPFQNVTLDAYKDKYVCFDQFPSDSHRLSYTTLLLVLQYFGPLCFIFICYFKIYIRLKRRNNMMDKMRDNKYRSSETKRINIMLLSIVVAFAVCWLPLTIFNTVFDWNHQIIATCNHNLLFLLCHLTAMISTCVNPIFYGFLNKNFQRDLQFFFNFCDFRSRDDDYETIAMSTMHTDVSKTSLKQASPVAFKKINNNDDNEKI

Y4R = Y4R (Homo sapiens, UniProt P50391); assay: CaFlux Assay (FLIPR), Y4R
Chain of Y4R (P50391 whole entry): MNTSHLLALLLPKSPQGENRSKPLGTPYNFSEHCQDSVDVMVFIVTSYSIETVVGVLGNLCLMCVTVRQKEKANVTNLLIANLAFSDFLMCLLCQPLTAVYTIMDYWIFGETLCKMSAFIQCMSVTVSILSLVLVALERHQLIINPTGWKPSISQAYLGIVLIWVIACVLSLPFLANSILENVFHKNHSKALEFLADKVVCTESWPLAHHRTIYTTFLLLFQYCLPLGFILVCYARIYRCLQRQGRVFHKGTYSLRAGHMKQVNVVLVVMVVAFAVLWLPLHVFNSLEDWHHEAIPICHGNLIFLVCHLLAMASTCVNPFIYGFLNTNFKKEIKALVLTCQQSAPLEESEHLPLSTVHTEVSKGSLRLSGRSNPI

Y5R = target: T3, Y5R (Homo sapiens, UniProt Q15761); assay: CaFlux Assay (FLIPR), Y5R; conditions: for Emax: read-out: Y5R FLIPR, percentage in parentheses under the EC50;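 for Emax: percent of the maximal response of the positive control agonist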
T3 sequence (Q15761 1-445): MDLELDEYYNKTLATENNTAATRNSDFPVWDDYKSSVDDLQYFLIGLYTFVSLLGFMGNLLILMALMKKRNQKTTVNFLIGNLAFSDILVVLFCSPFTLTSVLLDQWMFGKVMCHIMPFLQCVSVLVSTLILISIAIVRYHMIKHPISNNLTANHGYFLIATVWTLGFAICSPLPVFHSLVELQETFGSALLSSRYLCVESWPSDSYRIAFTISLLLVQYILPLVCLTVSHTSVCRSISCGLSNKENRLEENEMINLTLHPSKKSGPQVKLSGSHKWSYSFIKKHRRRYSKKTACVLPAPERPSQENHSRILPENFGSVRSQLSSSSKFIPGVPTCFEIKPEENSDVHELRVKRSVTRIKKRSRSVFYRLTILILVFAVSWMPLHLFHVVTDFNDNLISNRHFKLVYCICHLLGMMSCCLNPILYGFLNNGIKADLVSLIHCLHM

hNPY2R [2] = target: T1, hNPY2R; assay: CaFlux Assay (FLIPR), Y2R; set-up: expressed in transfected cells; host or cells: HEK-293 stably expressing G protein chimera Gaqi9
Procedure: Hek-293 cells were stably transfected with the G protein chimera Gaqi9 and the hygromycin-B resistance gene were further transfected with the human NPY2 receptor and G418 antibiotic selection. Following selection in both hygromycin-B and G418, individual clones were assayed for their response to PYY. The transfected cells were cultured in DMEM medium supplemented with 10% fetal bovine serum, 50 μg/mL hygromycin-B 2 mM glutamine, 100 U/mL penicillin, 100 μg/mL streptomycin and 250 μg/mL G418. Cells are harvested with trypsin-EDTA and counted using ViaCount reagent. The cell suspension volume is adjusted to 4.8×10^5 cells/mL with complete growth media. Aliquots of 25 μL are dispensed into 384 well Poly-D Lysine coated black/clear microplates (Falcon) and the microplates were placed in a 37° C. CO2 incubator overnight. Loading Buffer (Calcium-3 Assay Kit, Molecular Devices) was prepared by dissolving the contents of one vial (Express Kit) into 1000 mL Hank's Balanced Salt Solution containing 20 mM HEPES and 5 mM probenecid. Aliquots of 25 μL of diluted dye were dispensed into the cell plates and the plates are then incubated for 1 hour at 37° C. During the incubation, test compounds were prepared at 3.5× the desired concentration in HBSS (20 mM HEPES)/0.05% BSA/1% DMSO and transferred to a 384 well plate for use on FLIPR. After incubation, both the cell and compound plates were brought to the FLIPR and 20 μL of the diluted compounds were transferred to the cell plates by the FLIPR. During the assay, fluorescence readings were taken simultaneously from all 384 wells of the cell plate every 1.5 seconds. Five readings were taken to establish a stable baseline, and then 20 μL of sample was rapidly (30 μL/sec) and simultaneously added to each well of the cell plate. The fluorescence was continuously monitored before, during and after sample addition for a total elapsed time of 100 seconds. Responses (increase in peak fluorescence) in each well following addition were determined. The initial fluorescence reading from each well, prior to ligand stimulation, was used as a zero baseline value for the data from that well. The responses are expressed as % of maximal response of the positive control.

| SMILES | EC50 (hNPY2R [1]) [nM] | EC50 (Y1R) [nM] | EC50 (Y4R) [nM] | EC50 (Y5R) [nM] | EC50 (hNPY2R [2]) [nM] | EC50 (hNPY2R [1]; HEK293/hNPY2R, Forskolin 5 μM, read-out: Y2R EC50 (nM) cAMP) [nM] | EC50 (Y1R; FLIPR, read-out: Y1R EC50 (nM) FLIPR) [nM] | EC50 (Y4R; FLIPR, read-out: Y4R EC50 (nM) FLIPR) [nM] | EC50 (Y5R; FLIPR, read-out: Y5R EC50 (nM) FLIPR) [nM] | Emax (Y5R) [%] | EC50 (hNPY2R [2]; FLIPR calcium flux, Hek-293 cells with Gaqi9 and human NPY2 receptor, read-out: Y2R EC50 (nM) FLIRR) [nM] |
| --- | --- | --- | --- | --- | --- | --- | --- | --- | --- | --- | --- |
| CCCCCCCCCCCCCCCC(=O)NCCCCCC(=O)N[C@H](C(=O)N[C@@H](CCCCN)C(=O)N1CCN(c2ccc3ncn(CC(=O)N[C@@H](CCCNC(=N)N)C(=O)N[C@@H](Cc4c[nH]cn4)C(=O)N[C@@H](Cc4ccc(O)cc4)C(=O)N[C@@H](CC(C)C)C(=O)N[C@@H](CC(N)=O)C(=O)N[C@@H](Cc4c[nH]c5ccccc45)C(=O)N[C@H](C(=O)N[C@H](C(=O)N[C@@H](CCCNC(=N)N)C(=O)N[C@@H](CCC(N)=O)C(=O)N(C)[C@@H](CCCNC(=N)N)C(=O)N[C@@H](Cc4ccc(O)cc4)C(N)=O)[C@@H](C)O)C(C)C)c(=O)c3c2)CC1)[C@@H](C)CC [Example 16] | 0.23 | > 5000 | 13700 | 544 | 0.18 | – | – | – | – | – | – |
| CCCCCCCCCCCCCCCC(=O)NCCCCCC(=O)N[C@H](C(=O)N[C@@H](CCCCN)C(=O)N1CCN(c2ccc3ncn(CC(=O)N[C@@H](CCCNC(=N)N)C(=O)N[C@@H](Cc4c[nH]cn4)C(=O)N[C@@H](Cc4ccc(O)cc4)C(=O)N[C@@H](CC(C)C)C(=O)N[C@@H](CC(N)=O)C(=O)N[C@@H](Cc4c[nH]c5ccccc45)C(=O)N[C@H](C(=O)N[C@H](C(=O)N[C@@H](CCCNC(=N)N)C(=O)N[C@@H](CCC(N)=O)C(=O)N[C@@H](CCCNC(=N)N)C(=O)N[C@@H](Cc4ccc(O)cc4)C(N)=O)[C@@H](C)O)C(C)C)c(=O)c3c2)CC1)[C@@H](C)CC [Example 17] | 0.25 | > 5000 | 14500 | 27 | 0.09 | – | – | – | – | – | – |
| CCCCCCCCCCCCCCCC(=O)NCCCCCC(=O)NCCCC[C@H](NC(=O)[C@@H](N)[C@@H](C)CC)C(=O)N1CCN(c2ccc3ncn(CC(=O)N[C@@H](CCCNC(=N)N)C(=O)N[C@@H](Cc4c[nH]cn4)C(=O)N[C@@H](Cc4ccc(O)cc4)C(=O)N[C@@H](CC(C)C)C(=O)N[C@@H](CC(N)=O)C(=O)N[C@@H](Cc4c[nH]c5ccccc45)C(=O)N[C@H](C(=O)N[C@H](C(=O)N[C@@H](CCCNC(=N)N)C(=O)N[C@@H](CCC(N)=O)C(=O)N(C)[C@@H](CCCNC(=N)N)C(=O)N[C@@H](Cc4ccc(O)cc4)C(N)=O)[C@@H](C)O)C(C)C)c(=O)c3c2)CC1 [Example 18] | 0.18 | > 5000 | > 5000 | 1190 | 0.012 | – | – | – | – | – | – |
| CCCCCCCCCCCCCCCC(=O)NCCCCCC(=O)NCCCC[C@H](NC(=O)[C@@H](N)[C@@H](C)CC)C(=O)N1CCN(c2ccc3ncn(CC(=O)N[C@@H](CCCNC(=N)N)C(=O)N[C@@H](Cc4c[nH]cn4)C(=O)N[C@@H](Cc4ccc(O)cc4)C(=O)N[C@@H](CC(C)C)C(=O)N[C@@H](CC(N)=O)C(=O)N[C@@H](Cc4c[nH]c5ccccc45)C(=O)N[C@H](C(=O)N[C@H](C(=O)N[C@@H](CCCNC(=N)N)C(=O)N[C@@H](CCC(N)=O)C(=O)N[C@@H](CCCNC(=N)N)C(=O)N[C@@H](Cc4ccc(O)cc4)C(N)=O)[C@@H](C)O)C(C)C)c(=O)c3c2)CC1 [Example 19] | 0.15 | > 5000 | > 5000 | 45 | 0.004 | – | – | – | – | – | – |
| CCCCCCCCCCCCCCCC(=O)NCCC(=O)NCCCC[C@H](NC(=O)[C@@H](N)[C@@H](C)CC)C(=O)N1CCN(c2ccc3ncn(CC(=O)N[C@@H](CCCNC(=N)N)C(=O)N[C@@H](Cc4c[nH]cn4)C(=O)N[C@@H](Cc4ccc(O)cc4)C(=O)N[C@@H](CC(C)C)C(=O)N[C@@H](CC(N)=O)C(=O)N[C@@H](Cc4c[nH]c5ccccc45)C(=O)N[C@H](C(=O)N[C@H](C(=O)N[C@@H](CCCNC(=N)N)C(=O)N[C@@H](CCC(N)=O)C(=O)N(C)[C@@H](CCCNC(=N)N)C(=O)N[C@@H](Cc4ccc(O)cc4)C(N)=O)[C@@H](C)O)C(C)C)c(=O)c3c2)CC1 [Example 20] | 0.26 | > 5000 | > 5000 | 1880 | 0.015 | – | – | – | – | – | – |
| CCCCCCCCCCCCCCCC(=O)N[C@@H](CCC(=O)O)C(=O)NCCCC[C@H](NC(=O)[C@@H](N)[C@@H](C)CC)C(=O)N1CCN(c2ccc3ncn(CC(=O)N[C@@H](CCCNC(=N)N)C(=O)N[C@@H](Cc4c[nH]cn4)C(=O)N[C@@H](Cc4ccc(O)cc4)C(=O)N[C@@H](CC(C)C)C(=O)N[C@@H](CC(N)=O)C(=O)N[C@@H](Cc4c[nH]c5ccccc45)C(=O)N[C@H](C(=O)N[C@H](C(=O)N[C@@H](CCCNC(=N)N)C(=O)N[C@@H](CCC(N)=O)C(=O)N(C)[C@@H](CCCNC(=N)N)C(=O)N[C@@H](Cc4ccc(O)cc4)C(N)=O)[C@@H](C)O)C(C)C)c(=O)c3c2)CC1 [Example 21] | 1 | > 5000 | > 5000 | 4180 | 0.43 | – | – | – | – | – | – |
| CCCCCCCCCCCCCCCC(=O)N[C@@H](CCC(=O)O)C(=O)N[C@@H](CCC(=O)O)C(=O)NCCCC[C@H](NC(=O)[C@@H](N)[C@@H](C)CC)C(=O)N1CCN(c2ccc3ncn(CC(=O)N[C@@H](CCCNC(=N)N)C(=O)N[C@@H](Cc4c[nH]cn4)C(=O)N[C@@H](Cc4ccc(O)cc4)C(=O)N[C@@H](CC(C)C)C(=O)N[C@@H](CC(N)=O)C(=O)N[C@@H](Cc4c[nH]c5ccccc45)C(=O)N[C@H](C(=O)N[C@H](C(=O)N[C@@H](CCCNC(=N)N)C(=O)N[C@@H](CCC(N)=O)C(=O)N(C)[C@@H](CCCNC(=N)N)C(=O)N[C@@H](Cc4ccc(O)cc4)C(N)=O)[C@@H](C)O)C(C)C)c(=O)c3c2)CC1 [Example 23] | – | – | – | – | – | 0.29 | > 5000 | > 5000 | 459 | 70 | 0.033 |
| CCCCCCCCCCCCCCCC(=O)N[C@@H](CCC(=O)NCCCC[C@H](NC(=O)[C@@H](N)[C@@H](C)CC)C(=O)N1CCN(c2ccc3ncn(CC(=O)N[C@@H](CCCNC(=N)N)C(=O)N[C@@H](Cc4c[nH]cn4)C(=O)N[C@@H](Cc4ccc(O)cc4)C(=O)N[C@@H](CC(C)C)C(=O)N[C@@H](CC(N)=O)C(=O)N[C@@H](Cc4c[nH]c5ccccc45)C(=O)N[C@H](C(=O)N[C@H](C(=O)N[C@@H](CCCNC(=N)N)C(=O)N[C@@H](CCC(N)=O)C(=O)N(C)[C@@H](CCCNC(=N)N)C(=O)N[C@@H](Cc4ccc(O)cc4)C(N)=O)[C@@H](C)O)C(C)C)c(=O)c3c2)CC1)C(=O)O [Example 24] | 0.21 | > 5000 | > 5000 | 168 | 0.039 | – | – | – | – | 70 | – |
| CCCCCCCCCCCCCCCC(=O)N[C@@H](CCC(=O)N[C@@H](CCC(=O)NCCCC[C@H](NC(=O)[C@@H](N)[C@@H](C)CC)C(=O)N1CCN(c2ccc3ncn(CC(=O)N[C@@H](CCCNC(=N)N)C(=O)N[C@@H](Cc4c[nH]cn4)C(=O)N[C@@H](Cc4ccc(O)cc4)C(=O)N[C@@H](CC(C)C)C(=O)N[C@@H](CC(N)=O)C(=O)N[C@@H](Cc4c[nH]c5ccccc45)C(=O)N[C@H](C(=O)N[C@H](C(=O)N[C@@H](CCCNC(=N)N)C(=O)N[C@@H](CCC(N)=O)C(=O)N(C)[C@@H](CCCNC(=N)N)C(=O)N[C@@H](Cc4ccc(O)cc4)C(N)=O)[C@@H](C)O)C(C)C)c(=O)c3c2)CC1)C(=O)O)C(=O)O [Example 25] | 0.22 | > 5000 | > 5000 | 443 | 0.08 | – | – | – | – | 70 | – |
